The numbers were not newly measured in paper PMC2234480 (The Journal of General Physiology, 2003), which cites them from elsewhere.

Each structure is given as a SMILES string.

The data set relates to CLC-0. The note with it: ref Pusch et al., 2001.

Turning to `CCC(Oc1ccc(Cl)cc1)C(=O)O` (centres unmarked) [CPB, p-chlorophenoxy-butyric acid], under “5 mM CPB, V > 40 mV”, the “relief of block at positive voltages” value is “complete unblock”. Further, the “affinity for closed channels” value (model from macroscopic and single-channel analysis) is “submillimolar affinity”.
